Marks after values point to notes of the source that are not given here.
Assays:
[1] = system: patient with liver cancer or pancreas cancer; test: Clinical tolerance of Huachasu injection (literature, Meng Z. et al.); assay type: in vivo, human; settings: worked out from the Huachasu injection dose and its bufalin content
Source text: At present, a Huachasu injection, prepared by dissolving Venenum Bufonis in normal saline, has been used for the clinical treatment of cancer in China. It has been reported that the combination of gemcitabine-oxaliplatin with Huachasu can enhance the chemotherapeutic effect in the treatment of patients with advanced gallbladder cancer (Qin T J, et al. World J Gastroenterol. 2008, 14(33):5210-6). […] However, the Huachasu injection is a mixture solution of alkaloids in Venenum Bufonis, and the content of bufalin contained therein is very low due to the poor water solubility of bufalin.

[2] = system: mice bearing L1210 leukemia; test: Therapeutic effect on mice bearing L1210 leukemia; assay type: in vivo, mouse; settings: ICR mice, i.p. daily, 1 mg/kg bufalin or 1 ml/kg Huachasu
Method: Mouse L1210 leukemia cells are subcultured intraperitoneally in ICR mouse. The bufalin liposome is prepared according to the method of Example 1. Male ICR mice (weight of 20±2 g, 5 mice in each cage) are fed in an animal room under alternative 12-hour illumination and 12-hour darkness at a constant temperature of 25° C. and allowed free access to standard laboratory diet. The mice are inoculated intraperitoneally with 1×10^5 L1210 leukemia cell suspension under sterile condition, and randomly divided into 4 groups (10 mice for each group). After 24 h, each group is intraperitoneally injected with 0.9% normal saline (control group), bufalin or bufalin liposome at the same dosage (obtained by Example 1, 1 mg/kg, the dosage is the amount of bufalin in liposome, and the actual dosage of liposome is calculated from encapsulation efficiency) and Huachasu injection (1 ml/kg, the dosage is obtained by converting clinically commonly used dosage into mouse administration dosage) respectively every day. The survival situations of mice within 35 days are observed and recorded, and the life extension rate is calculated. Life extension rate (%)=(average survival time of administration group/average survival time of control group-1)×100. Data are expressed as X±SEM. Statistical significance (P<0.05) for each variable was estimated by Student's t-test or ANOVA analysis.

[3] = system: colon cancer SW1116 cells; test: Growth inhibition on tumor cells (MTT); assay type: cell-based; settings: Homo sapiens
Method: The cells of human cervical carcinoma Hela, lung cancer A549, gastric cancer SGC7901, liver cancer HepG2, myeloid leukemia HL-60 and colon cancer SW1116 are cultured in DMEM or RPMI 1640 medium (containing 10% inactived fetal bovine serum, 100 U·ml^−1 penicillin and 100 mg·l^−1 streptomycin) in a humidified 5% CO2 atmosphere at […]. The cells in logarithmic phase are collected, inoculated into 96-well plate at a density of 3×10^3/well (each well of 100 μl), and cultured for 24 h under 37° C., 5% CO2 and saturated humidity condition. A negative control group (culture solution) and administration groups with different concentrations are set up for the test. 1-300 nmol/1 bufalin or bufalin liposome (prepared according to the method of Example 1) is added into each culture well, followed by culturing in an incubator under 37° C., 5% CO2 and saturated humidity for 48 h, adding 20 μl of MTT solution (5 g/l) into each well, culturing for 4 h, and centrifuging. The supernatant was aspirated, and 150 μl dimethyl sulfoxide (DMSO) is added to each well and slightly shaking to dissolve crystal. The OD values are measured at 570 nm by an automatic microplate reader, and the cell growth inhibition rates are calculated according to following formula: cell growth inhibition rate/%=100−(OD value of administration group-OD value of blank control group)/(OD value of control group-OD value of bland control group)×100. IC50 (drug concentration at 50% inhibition on cell proliferation) value is calculated using mathematical method. Data are expressed as X±SEM. Statistical significance (P<0.05) for each variable is estimated by Student's t-test or ANOVA analysis.

[4] = Evaluation of acute toxicities in mice (LD50, Bliss method); settings: mouse, in vivo, ip; male Balb/c mice, intraperitoneal, observed 7 days; dose as amount of bufalin; read-out: half-lethal dose (LD50)
Method: Male Balb/c mice (20-25 g) are purchased from the Laboratory Animal Center of Fourth Military Medical University. Bufalin is dissolved with anhydrous ethanol first, and then diluted with normal saline to 0.2 mg/ml (the final concentration of ethanol is below 1%). Bufalin liposome (prepared according to the method of Example 1) is directly dissolved in normal saline to obtain 0.2 mg/ml solution. 10 animals of each group are intraperitoneally injected with bufalin or bufalin liposome at dosages of 0.5, 1, 2, 4 and 6 mg/kg respectively (the dosage is the amount of bufalin in liposome, and the actual dosage of liposome is calculated from encapsulation efficiency). The mortality of mice, the toxic effect and any adverse reactions such as diarrhea, weight loss and behavior change are observed continuously for 7 days. The half-lethal dose (LD50) is calculated using graphical Bliss method.

[5] = system: HepG2 tumour bearing mice; test: In vivo therapeutic effect on liver cancer, HepG2 tumour bearing nude mice; parameters: species or system mouse; settings: i.p. daily, 1 mg/kg bufalin or 1 ml/kg Huachasu
Method: Human hepatocellular carcinoma cells, HepG2, are cultured in DMEM medium supplemented with 10% FBS, 100 U/ml penicillin G, and 100 μg/ml streptomycin in a humidified 5% CO2 atmosphere at 37° C. Male BALB/c nude mice (6-week-aged) are fed in pathogen-free conditions. The bufalin liposome is prepared according to the method of Example 1. Exponentially growing HepG2 cells are collected, and prepared into cell suspension with PBS. 0.2 ml of the cell suspension (2×10^7 cells) is injected subcutaneously into the right back of each mouse. When the tumor grows to 100 mm^3 (about one week), the mice are randomly divided into 4 groups (8 mice for each group), and intraperitoneally injected with 0.9% normal saline (control group), bufalin or bufalin liposome at the same dosage (Example 1, 1 mg/kg, the dosage is the amount of bufalin in liposome, and the actual dosage of liposome is calculated from encapsulation efficiency) and Huachasu injection (1 ml/kg, the dosage is obtained by converting clinically commonly used dosage into mouse administration dosage) respectively every day. […] The tumor volume is calculated according to the formula: V(mm^3)=(maximal diameter×minimal diameter^2)/2. After 14 days, the mice are sacrificed in anesthesia with overdose of pentobarbital sodium, followed by completely stripping the tumor body and weighing, and calculating the tumor inhibition rate by: tumor inhibition rate (%)=(average tumor weight of control group-average tumor weight of administration group)/average tumor weight of control group×100. Data are expressed as X±SEM, and statistically processed via t-test or variance analysis.

C[C@]12CC[C@H](O)C[C@H]1CC[C@@H]1[C@@H]2CC[C@]2(C)[C@@H](c3ccc(=O)oc3)CC[C@]12O [bufalin, 3β,14-dihydroxy-5β, 20(22)-bufadienolide]
amount of bufalin tolerated by an adult patient every day [1]: up to 2.3 μg | Average survival time ([2]; observed 35 days, 1 mg/kg): 22.8 ± 3.1 days | Life extension rate (%) ([2]; versus control group): 36.5% | inhibition at 0.001 µM ([3]; SW 1116, SW1116, 1 nmol/l, 48 h, read-out: Inhibition rate (%)): 1.9 ± 0.3% | inhibition at 0.003 µM ([3]; SW 1116, SW1116, 3 nmol/l, 48 h, read-out: Inhibition rate (%)): 2.7 ± 0.1% | inhibition at 0.01 µM ([3]; SW 1116, SW1116, 10 nmol/l, 48 h, read-out: Inhibition rate (%)): 18 ± 3.9% | inhibition at 0.03 µM ([3]; SW 1116, SW1116, 30 nmol/l, 48 h, read-out: Inhibition rate (%)): 42.7 ± 6.3% | inhibition at 0.1 µM ([3]; SW 1116, SW1116, 100 nmol/l, 48 h, read-out: Inhibition rate (%)): 73.1 ± 8.8% | inhibition at 0.3 µM ([3]; SW 1116, SW1116, 300 nmol/l, 48 h, read-out: Inhibition rate (%)): 99.4 ± 11.6% | IC50 ([3]; SW 1116, SW1116, 48 h): 30.6 nM | LD50 at 7 days [4]: 2 mg/kg | tumor inhibition rate ([5]; after 14 days, versus control group): 21.8% | Tumor volume (mm^3) ([5]; treatment day 0 (prior to administration)): 410.5 ± 75.3 mm^3 | Tumor volume (mm^3) ([5]; treatment day 2): 1055.8 ± 203.0 mm^3 | Tumor volume (mm^3) ([5]; treatment day 4): 1621.0 ± 303.8 mm^3 | Tumor volume (mm^3) ([5]; treatment day 6): 2215.9 ± 338.1* mm^3 | Tumor volume (mm^3) ([5]; treatment day 8): 2115.7 ± 349.7* mm^3 | Tumor volume (mm^3) ([5]; treatment day 10): 2565.4 ± 385.2* mm^3 | Tumor volume (mm^3) ([5]; treatment day 12): 2691.9 ± 407.1* mm^3 | Tumor volume (mm^3) ([5]; treatment day 14, 1 mg/kg): 3205.6±711.5 mm^3 | Tumor volume (mm^3) ([5]; treatment day 14, listed as Bufalin, 1 mg/kg): 3205.6 ± 711.5* mm^3

Source: patent US9814734B2, “Bufalin liposome, preparation method therefor and application thereof” (THE FOURTH MILITARY MEDICAL UNIVERSITY, priority 2012, dated 2017)
